Series [1] in a line: Tmax in BALB/C mouse at 10 mg/kg, po measured upto 24 hrs by LC-MS analysis. In kind it is ADME, organism-based. The note with it: in vivo.
The nature of series [2]: Cmax in Sprague-Dawley rat at 2 mg/kg, iv measured upto 24 hrs by LC-MS/MS analysis. The class given is ADME, organism-based. Also on record: route intravenous, dose 2 mg/kg, time <=24. Particulars: in vivo.
Series [3] is described as follows: Tmax in BALB/C mouse at 10 mg/kg, iv measured upto 24 hrs by LC-MS analysis. The class given is ADME, organism-based. Particulars: in vivo.
A short description of series [4]: AUClast in Beagle dog at 5 mg/kg, po measured upto 24 hrs by LC-MS/MS analysis. The note with it: in vivo. In kind it is ADME, organism-based, Canis lupus familiaris. Details: route oral, dose 5 mg/kg, time <=24.
Series [5] is described as follows: Volume of distribution at steady state in Beagle dog at 1 mg/kg, iv measured upto 24 hrs by LC-MS/MS analysis. The class given is ADME, organism-based, Canis lupus familiaris. Particulars: in vivo, 1 mg/kg, 24 h.
A short description of series [6]: Cmax in Beagle dog at 5 mg/kg, po measured upto 24 hrs by LC-MS/MS analysis. The class given is ADME, organism-based, Canis lupus familiaris. Details: route oral, dose 5 mg/kg, time <=24. The note with it: in vivo.
Series [7] is described as follows: AUClast in Beagle dog at 1 mg/kg, iv measured upto 24 hrs by LC-MS/MS analysis. Also on record: route intravenous, dose 1 mg/kg, time <=24. The class given is ADME, organism-based, Canis lupus familiaris. Particulars: in vivo.
A short description of series [8]: Tmax in Beagle dog at 5 mg/kg, po measured upto 24 hrs by LC-MS/MS analysis. In kind it is ADME, organism-based, Canis lupus familiaris. Particulars: in vivo.
Series [9] in a line: Cmax in BALB/C mouse at 10 mg/kg,po measured upto 24 hrs by LC-MS analysis. Also on record: route oral, dose 10 mg/kg, time <= 24. Particulars: in vivo. The class given is ADME, organism-based.
Series [10] in a line: Volume of distribution at steady state in Sprague-Dawley rat at 2 mg/kg, iv measured upto 24 hrs by LC-MS/MS analysis. In kind it is ADME, organism-based. Particulars: in vivo, read-out: Vdss.
Series [11] can be described thus: Oral bioavailability in BALB/C mouse at 10 mg/kg measured upto 24 hrs by LC-MS analysis. The class given is ADME, organism-based. Particulars: in vivo.
A short description of series [12]: AUClast in Sprague-Dawley rat at 2 mg/kg, iv measured upto 24 hrs by LC-MS/MS analysis. In kind it is ADME, organism-based. Also on record: route intravenous, dose 2 mg/kg, time <=24. The note with it: in vivo.
Series [13] in a line: Cmax in BALB/C mouse at 10 mg/kg, iv measured upto 24 hrs by LC-MS analysis. Particulars: in vivo. In kind it is ADME, organism-based. Also on record: route intravenous, dose 10 mg/kg, time <= 24.
A short description of series [14]: AUClast in BALB/C mouse at 10 mg/kg,po measured upto 24 hrs by LC-MS analysis. In kind it is ADME, organism-based. Also on record: route oral, dose 10 mg/kg, time <= 24. The note with it: in vivo.
The nature of series [15]: Tmax in Sprague-Dawley rat at 2 mg/kg, iv measured upto 24 hrs by LC-MS/MS analysis. In kind it is ADME, organism-based. The note with it: in vivo.
Series [16] in a line: Oral bioavailability in Beagle dog at 5 mg/kg measured upto 24 hrs by LC-MS/MS analysis. In kind it is ADME, organism-based, Canis lupus familiaris. The note with it: in vivo.
Series [17] in a line: Oral bioavailability in Sprague-Dawley rat at 10 mg/kg measured upto 24 hrs by LC-MS/MS analysis. Particulars: in vivo. In kind it is ADME, organism-based.
Series [18] can be described thus: Cmax in Beagle dog at 1 mg/kg, iv measured upto 24 hrs by LC-MS/MS analysis. The class given is ADME, organism-based, Canis lupus familiaris. Details: route intravenous, dose 1 mg/kg, time <=24. Particulars: in vivo.
The nature of series [19]: AUClast in BALB/C mouse at 10 mg/kg, iv measured upto 24 hrs by LC-MS analysis. In kind it is ADME, organism-based. Details: route intravenous, dose 10 mg/kg, time <= 24. Particulars: in vivo.
Series [20] in a line: Tmax in Sprague-Dawley rat at 10 mg/kg, po measured upto 24 hrs by LC-MS/MS analysis. Particulars: in vivo. In kind it is ADME, organism-based.
Series [21] can be described thus: Cmax in Sprague-Dawley rat at 10 mg/kg, po measured upto 24 hrs by LC-MS/MS analysis. The class given is ADME, organism-based. Also on record: route oral, dose 10 mg/kg, time <=24. Particulars: in vivo.
The nature of series [22]: Solubility of the compound. In kind it is physicochemical.
A short description of series [23]: Lipophilicity, log D of compound at pH 7.4. The class given is physicochemical. Particulars: buffer.
A short description of series [24]: Cmax in BALB/C mouse at 1 mg/kg, iv measured upto 24 hrs by LC-MS analysis. The class given is ADME, organism-based. Also on record: route intravenous, dose 1 mg/kg, time <= 24. Particulars: in vivo.
A short description of series [25]: Tmax in BALB/C mouse at 1 mg/kg, iv measured upto 24 hrs by LC-MS analysis. Particulars: in vivo. In kind it is ADME, organism-based.
Series [26] can be described thus: AUClast in BALB/C mouse at 1 mg/kg, iv measured upto 24 hrs by LC-MS analysis. In kind it is ADME, organism-based. Also on record: route intravenous, dose 1 mg/kg, time <= 24. The note with it: in vivo.
Series [27] is described as follows: Volume of distribution at steady state in BALB/C mouse at 1 mg/kg, iv measured upto 24 hrs by LC-MS analysis. The note with it: in vivo, read-out: Vdss. The class given is ADME, organism-based.

Data on four molecules can be found in ChEMBL document CHEMBL4715876 (J Med Chem, 2020).

SMILES strings stand for the structures. Converted amounts (≈) assume the structure as drawn.

For the molecule `C[C@H](Nc1ncnc2[nH]cnc12)c1nc2cccc(Cl)c2c(=O)n1-c1ccccc1`, the Tmax (in general, the time from dosing to the highest level) in series [1] was 4.98 min; in [3] it was 4.98 min; in [8], 79.8 min; in series [15] it was 4.98 min; in series [20] it was 72 min. In addition, the Cmax (usually the maximum level reached in the sampled fluid or tissue) in [2] is 3640 nM; in series [6], 5680 nM; in series [9], 930 nM; in series [13] it was 13300 nM; in series [18], 1200 nM; in series [21], 1880 nM. For the same molecule, the AUClast in series [4] is 26.25 µM·h; in series [7] it was 1.88 µM·h. In addition, in [5], the Vdss (commonly a proportionality between amount in the body and measured concentration, not a real space) amounted to 57 L/kg. In series [10], the Vd amounted to 1.66 L/kg. Also, the bioavailability (commonly the share of a dose that reaches the circulation, judged against a reference dose that is usually intravenous) in [11] was found to be 7%; in series [17], 57%. Further, the figures for the AUC(0-t) at 24 h in series [12], in series [14] and in series [19] were 2.77 µM·h, 0.328 µM·h and 4.55 µM·h, respectively. For the same molecule, in series [16], the F amounted to 40%.
Regarding `Cc1nc(N)nc(N[C@@H](C)c2c(-c3ccccc3)c(=O)n3cc(F)ccc3c2-c2ccc(F)cc2)c1C#N`, the solubility (usually the dissolved amount per volume that the medium holds) in series [22] is 44.9 µM (≈ 22.9 µg/mL). Also, the logD (as a rule, the decadic logarithm of the distribution of all forms, ionised or not, between an organic phase and buffer at a given pH) in series [23] was 3.26.
On the same counts, the results for `C[C@H](Nc1nc(N)nc(N)c1C#N)c1c(-c2ccccc2)c(=O)n2cc(F)ccc2c1-c1ccccc1` are 50.6 µM (≈ 24.9 µg/mL) and 2.49.
For the molecule `C[C@H](Nc1nc(N)nc(N)c1C#N)c1c(-c2ccccc2)c(=O)n2cc(F)ccc2c1C1CC1`, the Tmax was determined as 60 min in [1] and 4.8 min in series [25]. In addition, the Cmax in [24] was 1400 nM; in [9] it was 1300 nM. Moreover, the AUC(0-t) (commonly the area under the concentration-time curve up to a stated or last time point) at 24 h in series [26] is 1.5 µM·h; in [14], 2.4 µM·h. Also, in series [11], the bioavailability was 16%. In series [27], the Vd is 1.8 L/kg.
